A short description of data set [1]: Aqueous solubility of the compound at pH 7.4. Format: physicochemical. Particulars: aqueous medium.
In data set [2] the target is T1, Cannabinoid receptor 1 (Homo sapiens, UniProt P21554). Kind of data set: Agonist activity at human cannabinoid CB1 receptor expressed in CHO cells by luciferase reporter gene assay. In kind it is functional, cell-based.
Data set [3] can be described thus: Half life in rat at 0.4 mg/kg, iv. Set-up: dose 0.4 mg/kg, route intravenous. Format: ADME, organism-based. Particulars: in vivo.
Data set [4] in a line: AUC in rat plasma at 0.4 mg/kg, iv. In kind it is ADME, organism-based. Set-up: dose 0.4 mg/kg, route intravenous.
Data set [5] can be described thus: Apparent permeability from apical to basolateral side of human Caco2 cells. In kind it is ADME, cell-based. Particulars: Caco-2.
The next data set concerns the target Cannabinoid receptor 2 (Homo sapiens, UniProt P34972). Put plainly: Displacement of [3H]CP55940 from human cannabinoid CB2 receptor expressed in insect Sf9 cells.
Data set [6] in a line: Genotoxicity in Salmonella Typhimurium at 10^-4 M by Ames test. In kind it is toxicity. The following applies: salmonella enterica subsp. enterica serovar typhimurium, 100 µM. On the technique in general: The Ames test uses bacterial strains that need an amino acid and regain growth without it when mutated back.
For data set [7], the target named is T1, Cannabinoid receptor 1. Kind of data set: Displacement of [3H]CP55940 from human cannabinoid CB1 receptor expressed in insect Sf9 cells. (In a radioligand displacement assay an active substance lowers the binding of a labelled ligand.)
Data set [8] in a line: Volume of distribution at steady state in rat at 0.4 mg/kg, iv. In kind it is ADME, organism-based. Set-up: dose 0.4 mg/kg, route intravenous. Particulars: in vivo, read-out: Vdss.
The nature of data set [9]: Cmax in rat at 5 mg/kg, po. Format: ADME, organism-based. Set-up: dose 5 mg/kg, route oral. Particulars: in vivo.
A short description of data set [10]: Apparent permeability from basolateral to apical side of human Caco2 cells. Format: ADME, cell-based. Particulars: Caco-2. A general note: Caco-2 monolayers are a common model of the intestinal barrier.
A short description of data set [11]: AUC in rat plasma at 5 mg/kg, po. In kind it is ADME, organism-based. Set-up: dose 5 mg/kg, route oral.
Data set [12] in a line: Oral bioavailability in rat at 5 mg/kg. Format: ADME, organism-based. Particulars: in vivo.
Data set [13] in a line: Clearance in rat at 0.4 mg/kg, iv. In kind it is ADME, organism-based. Also on record: dose 0.4 mg/kg, route intravenous. The following applies: in vivo.
The nature of data set [14]: Tmax in rat at 5 mg/kg, po. In kind it is ADME, organism-based. Set-up: dose 5 mg/kg, route oral. Particulars: in vivo.

In brackets after ≈: the same amount, converted by molar mass.

T1 sequence (P21554 whole entry): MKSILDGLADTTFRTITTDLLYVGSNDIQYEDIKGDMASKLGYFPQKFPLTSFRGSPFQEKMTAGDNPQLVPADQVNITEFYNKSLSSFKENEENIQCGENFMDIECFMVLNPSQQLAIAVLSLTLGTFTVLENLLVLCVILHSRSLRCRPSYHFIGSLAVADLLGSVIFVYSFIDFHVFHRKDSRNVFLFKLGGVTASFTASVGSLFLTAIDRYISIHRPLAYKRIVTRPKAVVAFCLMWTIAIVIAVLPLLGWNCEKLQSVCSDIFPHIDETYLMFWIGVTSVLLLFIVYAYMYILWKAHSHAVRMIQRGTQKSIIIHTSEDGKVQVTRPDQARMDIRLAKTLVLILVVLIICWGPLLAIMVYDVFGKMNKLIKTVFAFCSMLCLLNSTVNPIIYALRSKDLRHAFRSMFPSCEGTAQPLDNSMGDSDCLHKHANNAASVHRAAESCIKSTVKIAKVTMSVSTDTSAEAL
Sequence of Cannabinoid receptor 2 (P34972 whole entry): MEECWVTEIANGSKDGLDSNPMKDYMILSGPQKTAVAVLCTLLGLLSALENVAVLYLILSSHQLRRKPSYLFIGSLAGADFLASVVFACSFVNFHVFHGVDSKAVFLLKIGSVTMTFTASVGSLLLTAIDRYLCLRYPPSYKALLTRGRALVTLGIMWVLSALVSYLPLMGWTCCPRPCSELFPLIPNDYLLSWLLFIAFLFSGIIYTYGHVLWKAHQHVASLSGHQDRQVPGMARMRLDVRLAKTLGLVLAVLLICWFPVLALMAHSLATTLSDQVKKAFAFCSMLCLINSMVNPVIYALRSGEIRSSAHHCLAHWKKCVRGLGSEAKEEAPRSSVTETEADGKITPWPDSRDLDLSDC

For `COCCN(C)Cc1nc(-c2cn(CC3CCOCC3)c3c(Cl)cccc23)ns1`, the solubility in [1] is less than 1 µg/mL. The same compound gave an EC50 on Cannabinoid receptor 1 [2] of 79.4 nM.

In data set [1], `Clc1cccc2c(-c3nsc(CN4CCCC4)n3)cn(CC3CCCCC3)c12` showed a solubility of less than 1 µg/mL. The same compound had an EC50 on Cannabinoid receptor 1 [2] of 15.8 nM.

As for `Clc1cccc2c(-c3nsc(CN4CCCC4)n3)cn(CC3CCOCC3)c12`, the solubility in [1] is less than 1 µg/mL.

In data set [1], `CC(=O)N[C@@H]1CCN(Cc2nc(-c3cn(CC4CCOCC4)c4c(Cl)cccc34)ns2)C1` displayed a solubility of 16 µg/mL (≈ 33.8 µM). This compound gave an EC50 on Cannabinoid receptor 1 [2] of 794 nM.

With `OC[C@H]1CCCN1Cc1nc(-c2cn(CC3CCOCC3)c3c(Cl)cccc23)ns1`, the solubility in data set [1] is less than 1 µg/mL. This compound showed an EC50 at Cannabinoid receptor 1 [2] of 15.8 nM.

The compound `O=C(O)C1CCCN1Cc1nc(-c2cn(CC3CCOCC3)c3c(Cl)cccc23)ns1` (stereo not drawn) showed a solubility in data set [1] of 108 µg/mL (≈ 234 µM). The EC50 on Cannabinoid receptor 1 [2] is 158 nM.

In [1], `NC(=O)CNC(=O)[C@@H]1CCCN1Cc1nc(-c2cn(CC3CCOCC3)c3c(Cl)cccc23)ns1` displayed a solubility of 15 µg/mL (≈ 29 µM). On Cannabinoid receptor 1 [2], this compound had an EC50 of 398 nM.

Regarding `CN(CCO)Cc1nc(-c2cn(CC3CCOCC3)c3c(Cl)cccc23)ns1`, the solubility in data set [1] was less than 1 µg/mL. This compound showed a half-maximal effective concentration (EC50) at Cannabinoid receptor 1 [2] of 79.4 nM.

For `COCCN(Cc1nc(-c2cn(CC3CCOCC3)c3c(Cl)cccc23)ns1)S(C)(=O)=O`, in data set [1], the solubility was less than 1 µg/mL.

`CS(=O)(=O)N(CCO)Cc1nc(-c2cn(CC3CCOCC3)c3c(Cl)cccc23)ns1` came in with a solubility in data set [1] of less than 1 µg/mL.

On to `COCCN(C)Cc1nc(-c2cn(CC3CCS(=O)(=O)CC3)c3c(Cl)cccc23)ns1`, for which, in [1], the solubility is less than 1 µg/mL. The same compound had a 50% effective concentration (EC50) at Cannabinoid receptor 1 [2] of 200 nM.

Turning to `Clc1cccc2c(-c3noc(CN4CCCC4)n3)cn(CC3CCOCC3)c12`, in data set [1], the solubility is less than 1 µg/mL. At Cannabinoid receptor 1 [2], this compound had a concentration giving a half-maximal response (EC50) of 100 nM.

Compound `CN(CC(N)=O)Cc1nc(-c2cn(CC3CCOCC3)c3c(Cl)cccc23)no1` gave a half-life in [3] of 1.4 h. For the same compound, the values for the exposure (AUC) in [4] and in [11] were 244 ng·h/mL and 1570 ng·h/mL, respectively. Besides, in data set [5], the Papp A→B came to 8.3 ×10⁻⁶ cm/s. Further, the results for the inhibition constant Ki on Cannabinoid receptor 2 and on Cannabinoid receptor 1 [7] were 6.31 nM and 3.98 nM, respectively. Besides, the Activity entry in data set [6] was “Non-toxic”. In addition, the Vd in [8] came to 3 L/kg. The compound further registered a solubility in data set [1] of 21 µg/mL (≈ 50.3 µM). This compound had a Cmax in [9] of 173 ng/mL. For the same compound, in [10], the Papp B→A is 12.7 ×10⁻⁶ cm/s. This compound displayed a bioavailability in data set [12] of 53%. The clearance in data set [13] is 28 mL/min/kg. In addition, in data set [14], the time of peak concentration (Tmax) came out at 1 h.

`CN(CC(=O)NCCO)Cc1nc(-c2cn(CC3CCOCC3)c3c(Cl)cccc23)no1` gave a solubility in data set [1] of 88 µg/mL (≈ 190 µM).

Consider `CN(Cc1nc(-c2cn(CC3CCOCC3)c3c(Cl)cccc23)no1)[C@@H](CO)C(N)=O`, for which the concentration in solution in data set [1] (solubility) was 95 µg/mL (≈ 212 µM). Also, the 50% effective concentration (EC50) on Cannabinoid receptor 1 [2] is 251 nM.

Take `O=C(NCCO)C1CCN(Cc2nc(-c3cn(CC4CCOCC4)c4c(Cl)cccc34)no2)CC1`: in data set [1], the solubility turned out to be 115 µg/mL (≈ 229 µM). The compound also showed an EC50 at Cannabinoid receptor 1 [2] of 126 nM.

For `COCC(=O)NCc1nc(-c2cn(CC3CCOCC3)c3c(Cl)cccc23)no1`, in data set [1], the concentration in solution (solubility) was 4 µg/mL (≈ 9.55 µM).

Consider `CCNC(=O)NCc1nc(-c2cn(CC3CCOCC3)c3c(Cl)cccc23)no1`, for which the solubility in data set [1] is less than 1 µg/mL. In addition, the EC50 on Cannabinoid receptor 1 [2] is 2000 nM.

`CN(C)S(=O)(=O)N(C)Cc1nc(-c2cn(CC3CCOCC3)c3c(Cl)cccc23)no1` returned a solubility in data set [1] of less than 1 µg/mL. On Cannabinoid receptor 1 [2], this compound gave an EC50 of 31.6 nM.

In turn, `CC(C)N(CCO)Cc1csc(-c2c(CC3CCOCC3)[nH]c3c(Cl)cccc23)n1` had a solubility in data set [1] greater than 10 µg/mL. For the same compound, the EC50 on Cannabinoid receptor 1 [2] was no more than 100 nM. This compound also registered a bioavailability in data set [12] of 4%.

Usually solubility stands for how much of the substance goes into solution per volume. Read a low solubility as a poorly soluble substance. By EC50 is commonly meant the midpoint of the concentration-response curve. High values mean weaker potency, low ones greater potency. By half-life is commonly meant the time in which the quantity being followed falls by half. What is called AUC is concentration integrated over time. Higher therefore signals more exposure. As a reminder, the Papp A→B is how fast a substance crosses the layer from the apical side. As a reminder, the Ki is the equilibrium dissociation constant of an inhibitor or competing ligand from its target. Lower therefore signals higher affinity. What is called Cmax is the maximum level reached in the sampled fluid or tissue. Usually Papp B→A stands for how fast a substance crosses the layer from the basolateral side. Broadly, the bioavailability is the share of a dose that reaches the circulation, judged against a reference dose that is usually intravenous. Lower therefore signals little systemic uptake. The term clearance denotes the rate of elimination divided by the concentration. A low value points to inefficient removal. A word on the Tmax: it is the time at which the peak concentration occurs.

These data come from ChEMBL document CHEMBL1681724, “Discovery of potent and orally bioavailable heterocycle-based cannabinoid CB1 receptor agonists” (Bioorg Med Chem Lett, 2011).
